Reference: patent US20100152215A1, “METHODS OF IDENTIFYING ACTIVATORS OF LYN KINASE” (MELIOR PHARMACEUTICALS I, INC., priority 2007, published 2010)

Assays:
MAPKAP5 = MAPKAP5 (Homo sapiens, UniProt Q8IW41); experiment: kinase screen for inhibition or activation; assay type: biochemical; details: 10 μM
Experimental: (§1) A kinase screen was conducted in which Compound 102 (10 μM) was screened against 49 kinases for inhibition or activation. Any kinase that was activated or inhibited by at least 20% was considered to be a significant effect. Of the 49 kinases screened, Lyn kinase was activated by 51%. In a repeat experiment, Lyn kinase activity was increased by 57%.

MET = MET (Homo sapiens, UniProt P08581); experiment: kinase screen for inhibition or activation; assay type: biochemical; details: 10 μM
Experimental: as §1

MSK1 = MSK1 (Homo sapiens, UniProt O75582); experiment: kinase screen for inhibition or activation; assay type: biochemical; details: 10 μM
Sequence of MSK1 (O75582 whole entry, species assumed): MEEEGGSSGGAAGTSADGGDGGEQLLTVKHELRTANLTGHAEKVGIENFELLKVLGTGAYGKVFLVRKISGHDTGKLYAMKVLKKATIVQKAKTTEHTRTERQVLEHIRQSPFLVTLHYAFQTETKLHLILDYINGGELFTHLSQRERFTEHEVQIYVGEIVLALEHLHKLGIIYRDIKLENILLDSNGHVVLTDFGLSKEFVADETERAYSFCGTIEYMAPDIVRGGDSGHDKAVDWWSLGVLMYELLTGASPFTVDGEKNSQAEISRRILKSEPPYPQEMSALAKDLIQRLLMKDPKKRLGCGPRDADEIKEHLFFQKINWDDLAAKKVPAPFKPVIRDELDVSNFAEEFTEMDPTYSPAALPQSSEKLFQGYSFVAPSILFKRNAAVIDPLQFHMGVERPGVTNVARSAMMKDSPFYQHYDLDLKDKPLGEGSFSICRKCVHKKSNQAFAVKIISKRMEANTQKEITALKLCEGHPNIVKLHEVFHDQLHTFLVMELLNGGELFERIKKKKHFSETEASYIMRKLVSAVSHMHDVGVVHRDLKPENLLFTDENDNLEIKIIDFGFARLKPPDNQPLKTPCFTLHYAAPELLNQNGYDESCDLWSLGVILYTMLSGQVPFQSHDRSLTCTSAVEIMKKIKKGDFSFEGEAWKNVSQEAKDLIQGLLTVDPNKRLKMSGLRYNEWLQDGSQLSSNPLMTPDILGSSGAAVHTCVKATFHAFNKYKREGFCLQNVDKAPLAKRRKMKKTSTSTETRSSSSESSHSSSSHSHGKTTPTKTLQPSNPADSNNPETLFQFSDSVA
Experimental: as §1

MST2 = MST2 (Homo sapiens, UniProt Q13188); experiment: kinase screen for inhibition or activation; assay type: biochemical; details: 10 μM
Experimental: as §1

PAK2 = PAK2 (Homo sapiens, UniProt Q13177); experiment: kinase screen for inhibition or activation; assay type: biochemical; details: 10 μM
Experimental: as §1

PDK1 = PDK1 (Homo sapiens, UniProt O15530); experiment: kinase screen for inhibition or activation; assay type: biochemical; details: 10 μM
Sequence of PDK1 (O15530 whole entry): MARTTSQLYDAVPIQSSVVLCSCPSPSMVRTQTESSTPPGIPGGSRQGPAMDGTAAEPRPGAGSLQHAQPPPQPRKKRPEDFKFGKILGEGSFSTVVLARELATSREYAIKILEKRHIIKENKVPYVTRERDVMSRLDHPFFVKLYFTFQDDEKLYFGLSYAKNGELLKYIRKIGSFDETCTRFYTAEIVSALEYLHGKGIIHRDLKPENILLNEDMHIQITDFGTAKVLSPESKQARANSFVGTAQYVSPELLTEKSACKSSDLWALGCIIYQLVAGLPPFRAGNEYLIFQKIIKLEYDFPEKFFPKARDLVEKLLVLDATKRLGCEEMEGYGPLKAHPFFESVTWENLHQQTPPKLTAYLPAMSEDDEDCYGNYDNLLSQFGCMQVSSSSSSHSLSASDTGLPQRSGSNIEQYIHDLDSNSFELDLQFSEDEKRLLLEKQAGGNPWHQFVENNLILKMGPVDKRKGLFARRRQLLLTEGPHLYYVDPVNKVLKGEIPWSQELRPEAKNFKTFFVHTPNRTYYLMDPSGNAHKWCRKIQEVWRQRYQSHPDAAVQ
Experimental: as §1

PKA = PKA (Homo sapiens, UniProt P17612); experiment: kinase screen for inhibition or activation; assay type: biochemical; details: 10 μM
Experimental: as §1

PKCb2 = PKCb2 (Homo sapiens, UniProt P05771); experiment: kinase screen for inhibition or activation; assay type: biochemical; details: 10 μM
Sequence of PKCb2 (P05771 1-673 isoform P05771-2): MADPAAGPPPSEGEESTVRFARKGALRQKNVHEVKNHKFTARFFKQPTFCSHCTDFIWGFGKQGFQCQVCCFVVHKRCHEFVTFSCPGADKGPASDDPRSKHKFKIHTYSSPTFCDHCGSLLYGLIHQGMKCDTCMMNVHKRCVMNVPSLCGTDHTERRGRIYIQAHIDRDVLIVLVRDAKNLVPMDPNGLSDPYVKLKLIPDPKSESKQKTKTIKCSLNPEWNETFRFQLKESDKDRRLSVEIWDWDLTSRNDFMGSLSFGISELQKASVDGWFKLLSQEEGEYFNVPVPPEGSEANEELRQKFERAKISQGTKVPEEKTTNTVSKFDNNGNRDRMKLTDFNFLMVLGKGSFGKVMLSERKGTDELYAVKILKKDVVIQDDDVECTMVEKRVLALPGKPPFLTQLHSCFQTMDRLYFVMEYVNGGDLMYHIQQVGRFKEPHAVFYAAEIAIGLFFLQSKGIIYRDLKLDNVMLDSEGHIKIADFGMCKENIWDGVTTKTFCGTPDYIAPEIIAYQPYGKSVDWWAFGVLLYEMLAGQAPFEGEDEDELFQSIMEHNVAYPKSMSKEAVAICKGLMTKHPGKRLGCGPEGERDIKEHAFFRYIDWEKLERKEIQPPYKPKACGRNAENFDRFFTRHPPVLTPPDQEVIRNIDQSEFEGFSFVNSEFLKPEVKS
Experimental: as §1

PKCz = PKCz (Homo sapiens, UniProt Q05513); experiment: kinase screen for inhibition or activation; assay type: biochemical; details: 10 μM
Sequence of PKCz (Q05513 whole entry): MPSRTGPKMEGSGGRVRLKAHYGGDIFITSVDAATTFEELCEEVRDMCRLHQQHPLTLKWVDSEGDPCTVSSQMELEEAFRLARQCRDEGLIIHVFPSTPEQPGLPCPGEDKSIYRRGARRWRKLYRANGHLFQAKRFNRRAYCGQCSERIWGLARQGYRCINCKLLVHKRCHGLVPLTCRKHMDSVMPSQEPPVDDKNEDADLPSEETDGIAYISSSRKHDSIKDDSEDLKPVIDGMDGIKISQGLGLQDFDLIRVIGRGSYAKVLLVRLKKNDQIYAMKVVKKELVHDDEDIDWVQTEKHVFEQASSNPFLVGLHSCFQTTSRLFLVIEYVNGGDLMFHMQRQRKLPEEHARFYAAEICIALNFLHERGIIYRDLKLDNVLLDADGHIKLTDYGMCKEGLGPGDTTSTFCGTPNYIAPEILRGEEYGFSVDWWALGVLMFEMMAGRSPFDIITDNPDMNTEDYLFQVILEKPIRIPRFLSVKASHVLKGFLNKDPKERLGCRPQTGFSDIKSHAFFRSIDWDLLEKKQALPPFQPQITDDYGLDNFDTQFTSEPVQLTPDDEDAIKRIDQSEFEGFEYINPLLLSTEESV
Experimental: as §1

PKD2 = PKD2 (Homo sapiens, UniProt Q9BZL6); experiment: kinase screen for inhibition or activation; assay type: biochemical; details: 10 μM
Sequence of PKD2 (Q9BZL6 whole entry): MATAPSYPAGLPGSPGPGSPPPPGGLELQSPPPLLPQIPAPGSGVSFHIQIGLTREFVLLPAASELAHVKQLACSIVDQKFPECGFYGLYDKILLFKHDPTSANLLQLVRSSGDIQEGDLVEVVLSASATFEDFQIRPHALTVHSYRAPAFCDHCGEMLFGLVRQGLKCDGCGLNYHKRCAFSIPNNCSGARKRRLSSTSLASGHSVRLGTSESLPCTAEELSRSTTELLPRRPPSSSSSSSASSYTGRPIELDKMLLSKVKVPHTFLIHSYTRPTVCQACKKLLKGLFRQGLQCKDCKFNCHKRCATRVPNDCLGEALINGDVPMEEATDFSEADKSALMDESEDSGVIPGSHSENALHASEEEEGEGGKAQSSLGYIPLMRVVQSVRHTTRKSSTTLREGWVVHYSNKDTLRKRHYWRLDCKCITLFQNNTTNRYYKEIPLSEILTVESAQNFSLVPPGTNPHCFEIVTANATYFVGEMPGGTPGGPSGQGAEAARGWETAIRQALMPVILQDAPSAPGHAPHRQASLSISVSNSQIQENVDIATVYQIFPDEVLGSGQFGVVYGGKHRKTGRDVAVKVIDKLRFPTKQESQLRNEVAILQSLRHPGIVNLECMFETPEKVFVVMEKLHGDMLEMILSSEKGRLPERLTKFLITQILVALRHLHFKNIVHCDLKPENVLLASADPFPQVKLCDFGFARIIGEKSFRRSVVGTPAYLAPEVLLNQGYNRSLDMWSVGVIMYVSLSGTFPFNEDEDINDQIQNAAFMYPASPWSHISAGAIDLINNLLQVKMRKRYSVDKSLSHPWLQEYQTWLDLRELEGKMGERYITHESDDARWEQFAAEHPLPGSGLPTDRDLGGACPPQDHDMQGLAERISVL
Experimental: as §1

Pim2 = Pim2 (Homo sapiens, UniProt Q9P1W9); experiment: kinase screen for inhibition or activation; assay type: biochemical; details: 10 μM
Sequence of Pim2 (Q9P1W9 whole entry, species assumed): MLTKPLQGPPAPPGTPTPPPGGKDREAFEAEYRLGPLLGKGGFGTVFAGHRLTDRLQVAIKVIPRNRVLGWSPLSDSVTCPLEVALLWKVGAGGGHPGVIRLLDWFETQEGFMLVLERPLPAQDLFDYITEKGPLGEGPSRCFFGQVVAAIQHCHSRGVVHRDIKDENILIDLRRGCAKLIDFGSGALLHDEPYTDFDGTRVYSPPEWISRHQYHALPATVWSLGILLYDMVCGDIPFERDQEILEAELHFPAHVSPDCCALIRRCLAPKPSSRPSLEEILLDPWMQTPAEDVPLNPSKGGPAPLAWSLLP
Experimental: as §1

ROCK2 = ROCK2 (Homo sapiens, UniProt O75116); experiment: kinase screen for inhibition or activation; assay type: biochemical; details: 10 μM
Experimental: as §1

RSK1 = RSK1 (Homo sapiens, UniProt Q15418); experiment: kinase screen for inhibition or activation; assay type: biochemical; details: 10 μM
Experimental: as §1

SGK1 = SGK1 (Homo sapiens, UniProt O00141); experiment: kinase screen for inhibition or activation; assay type: biochemical; details: 10 μM
Sequence of SGK1 (O00141 whole entry, species assumed): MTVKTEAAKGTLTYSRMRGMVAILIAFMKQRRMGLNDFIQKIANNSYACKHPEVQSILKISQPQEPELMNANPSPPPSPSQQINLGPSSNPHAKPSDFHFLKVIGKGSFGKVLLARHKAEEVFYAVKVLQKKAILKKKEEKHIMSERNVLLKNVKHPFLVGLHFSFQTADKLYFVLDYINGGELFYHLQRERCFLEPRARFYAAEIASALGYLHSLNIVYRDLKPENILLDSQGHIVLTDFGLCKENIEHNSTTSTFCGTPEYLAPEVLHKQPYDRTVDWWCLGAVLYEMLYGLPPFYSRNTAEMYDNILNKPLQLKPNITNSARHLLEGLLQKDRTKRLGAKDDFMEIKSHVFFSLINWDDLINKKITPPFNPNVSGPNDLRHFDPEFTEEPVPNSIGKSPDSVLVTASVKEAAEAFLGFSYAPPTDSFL
Experimental: as §1

Src = Src (Homo sapiens, UniProt P12931); experiment: kinase screen for inhibition or activation; assay type: biochemical; details: 10 μM
Experimental: as §1

Syc = Syc (Homo sapiens, UniProt P43405); experiment: kinase screen for inhibition or activation; assay type: biochemical; details: 10 μM
Experimental: as §1

cKit = cKit (Homo sapiens, UniProt P10721); experiment: kinase screen for inhibition or activation; assay type: biochemical; details: 10 μM
Experimental: as §1

cRAF = cRAF (Homo sapiens, UniProt P04049); experiment: kinase screen for inhibition or activation; assay type: biochemical; details: 10 μM
Experimental: as §1

p70S6K = experiment: kinase screen for inhibition or activation; assay type: biochemical; details: 10 μM; inhibition
Experimental: as §1

Lyn (h) = Lyn (h) (Homo sapiens, UniProt P07948); experiment: Lyn kinase activation, pre-incubation then standard radiometric assay; assay type: biochemical
Sequence of Lyn (h) (P07948 whole entry): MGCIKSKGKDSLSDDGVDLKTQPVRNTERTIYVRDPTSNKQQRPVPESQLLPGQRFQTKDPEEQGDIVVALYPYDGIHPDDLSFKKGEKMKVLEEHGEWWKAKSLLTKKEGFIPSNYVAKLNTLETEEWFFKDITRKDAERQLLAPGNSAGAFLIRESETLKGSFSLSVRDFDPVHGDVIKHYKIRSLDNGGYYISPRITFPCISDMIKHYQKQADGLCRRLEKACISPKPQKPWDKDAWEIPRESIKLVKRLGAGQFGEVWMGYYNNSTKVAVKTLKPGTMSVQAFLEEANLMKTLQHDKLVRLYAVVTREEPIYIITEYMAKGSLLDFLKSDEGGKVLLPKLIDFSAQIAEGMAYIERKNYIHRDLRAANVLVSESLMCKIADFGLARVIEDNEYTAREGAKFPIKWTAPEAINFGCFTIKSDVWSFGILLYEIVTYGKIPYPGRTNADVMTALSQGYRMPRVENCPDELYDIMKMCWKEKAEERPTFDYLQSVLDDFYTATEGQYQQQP

[1] = target: unphosphorylated Lyn kinase (Homo sapiens, UniProt P07948); experiment: Z'-LYTE Kinase Assay Kit-Tyr Peptide-2 Lyn kinase activation assay; assay type: biochemical; details: for Fold-Activation: 30 μM vs DMSO; for % Phosphorylation of Substrate: 30 μM
Sequence of unphosphorylated Lyn kinase (P07948 whole entry): as above
Experimental: The following example was conducted to further optimize assay conditions for detecting Compound 102-mediated activation of Lyn kinase. The assays describe below utilize the Z′-LYTE™ Kinase Assay Kit-Tyr Peptide (Invitrogen, Carlsbad, Calif.). These assay systems were originally developed to detect inhibitors of various tyrosine kinases.
The assay system used was a non-radiometric assay utilizing the Z′-LYTE™ Kinase Assay Kit-Tyr Peptide-2 (Invitrogen, Carlsbad, Calif.) for detecting activity of Lyn kinase. Buffer components were altered as described below. The lyn kinase protein used in these studies was the unphosphorylated form of the protein. Concentrations of this unphosphorylated lyn protein ranged from 25 ng/mL to 300 ng/mL. The preincubation step was lengthened from 30 minutes to 60 minutes.
The Invitrogen Reaction Buffer was used for all studies. The following additions were made to this Reaction Buffer and tested separately and compared to Reaction Buffer alone: Modification 1: Reaction Buffer with 0.1% BSA; Modification 2: Reaction Buffer with 1 mM dithiothreitol; Modification 3: Reaction Buffer with 0.01% BSA, 1 mM dithiothreitol; and Modification 4: Reaction Buffer with 0.1% β-mercaptoethanol.

Lyn = Lyn (Homo sapiens, UniProt P07948); details: 100 μM; ATP 0 to 800 μM
Sequence of Lyn (P07948 whole entry): as above

[2] = Modification 1: Reaction Buffer with 0.1% BSA
[3] = Modification 2: Reaction Buffer with 1 mM dithiothreitol
[4] = Modification 3: Reaction Buffer with 0.01% BSA, 1 mM dithiothreitol
[5] = Modification 4: Reaction Buffer with 0.1% β-mercaptoethanol

COMPOUND 102 ACTIVITY (% KINASE ACTIVITY) (MAPKAP5): 0.79%
COMPOUND 102 ACTIVITY (% KINASE ACTIVITY) (MET): 9.88%
COMPOUND 102 ACTIVITY (% KINASE ACTIVITY) (MSK1): 1.55%
COMPOUND 102 ACTIVITY (% KINASE ACTIVITY) (MST2): 4.59%
COMPOUND 102 ACTIVITY (% KINASE ACTIVITY) (PAK2): 1.55%
COMPOUND 102 ACTIVITY (% KINASE ACTIVITY) (PDK1): −2.63%
COMPOUND 102 ACTIVITY (% KINASE ACTIVITY) (PKA): −0.3%
COMPOUND 102 ACTIVITY (% KINASE ACTIVITY) (PKCb2): −1.12%
COMPOUND 102 ACTIVITY (% KINASE ACTIVITY) (PKCz): 9.05%
COMPOUND 102 ACTIVITY (% KINASE ACTIVITY) (PKD2): −10.34%
COMPOUND 102 ACTIVITY (% KINASE ACTIVITY) (Pim2): −8.06%
COMPOUND 102 ACTIVITY (% KINASE ACTIVITY) (ROCK2): −3.05%
COMPOUND 102 ACTIVITY (% KINASE ACTIVITY) (RSK1): 1.72%
COMPOUND 102 ACTIVITY (% KINASE ACTIVITY) (SGK1): −19.24%
COMPOUND 102 ACTIVITY (% KINASE ACTIVITY) (Src): 4.56%
COMPOUND 102 ACTIVITY (% KINASE ACTIVITY) (Syc): 11.12%
COMPOUND 102 ACTIVITY (% KINASE ACTIVITY) (cKit): 18.79%
COMPOUND 102 ACTIVITY (% KINASE ACTIVITY) (cRAF): 5.08%
p70S6K inhibited by (p70S6K): 24.3%
activity of Lyn kinase (h) relative to the DMSO control (Lyn (h); 100 μM, 30 minutes pre-incubation on ice, 10 μM ATP, 40 minutes at room temperature): more than 3 fold
EC50 (Lyn (h); 30 minutes pre-incubation on ice, 10 μM ATP): 650 nM
Fold-Activation [1, 2]: 1.1 fold
Fold-Activation [1, 3]: 1.2 fold
Fold-Activation [1, 4]: 1.6 fold
Fold-Activation [1, 5]: 2.4 fold
Fold-Activation ([1]; Reaction Buffer): 1.6 fold
% Phosphorylation of Substrate [1, 2]: 33.6%
% Phosphorylation of Substrate [1, 3]: 80.9%
% Phosphorylation of Substrate [1, 4]: 83.4%
% Phosphorylation of Substrate [1, 5]: 33.3%
% Phosphorylation of Substrate ([1]; Reaction Buffer): 16.2%
effect on the Km for ATP (Lyn): did not alter the Km for ATP
increase of the Vmax of Lyn kinase (Lyn): 3 fold
Compound: Cc1cccc(Oc2cnc(=O)[nH]c2)c1 [Compound 102]
concentration dependence of Lyn kinase (h) activity (Lyn (h); 1, 3, 10, 30 and 100 μM): increased with Compound 102 concentration in a dose-dependent manner
